# Laboratory results: paper PMC4730229, “Benzobisthiazoles Represent a Novel Scaffold for Kinase Inhibitors of CLK Family Members” (Biochemistry, 2015)
# Key:
# Assay in all cases: Kinase profiling (radioactive filter binding)
# Format in all cases: biochemical
# Details in all cases: 1 uM compound
# TESK1 = TESK1 (Homo sapiens, UniProt Q15569)
# Protocol: (§1) 3A5 and 5E4 were sent to the International Centre for Kinase Profiling at the MRC Protein Phosphorylation and Ubiquitylation Unit for profiling (as described in ref ([17])). Compounds were profiled against 140 kinases using a radioactive ([^33P]ATP) filter binding assay at a concentration of 1 μM. Results were obtained as inhibition of kinase activity and are listed in Supplementary Table 2.
# NEK2a = NEK2a (Homo sapiens, UniProt P51955)
# Protocol: as §1
# MAPKAP-K2 = MAPKAP-K2 (Homo sapiens, UniProt P49137)
# Protocol: as §1
# p38b MAPK = p38b MAPK (Homo sapiens, UniProt Q15759)
# Protocol: as §1
# TBK1 = TBK1 (Homo sapiens, UniProt Q9UHD2)
# Protocol: as §1
# p38a MAPK = p38a MAPK (Homo sapiens, UniProt Q16539)
# Protocol: as §1
# SYK = SYK (Homo sapiens, UniProt P43405)
# Protocol: as §1
# SIK2 = SIK2 (Homo sapiens, UniProt Q9H0K1)
# Protocol: as §1
# PLK1 = PLK1 (Homo sapiens, UniProt P53350)
# Protocol: as §1
# TTBK2 = TTBK2 (Homo sapiens, UniProt Q6IQ55)
# Protocol: as §1
# CHK1 = CHK1 (Homo sapiens, UniProt O14757)
# Protocol: as §1
# PKCa = PKCa (Homo sapiens, UniProt P17252)
# Protocol: as §1
# RSK1 = RSK1 (Homo sapiens, UniProt Q15418)
# Protocol: as §1
# WNK1 = WNK1 (Homo sapiens, UniProt Q9H4A3)
# Protocol: as §1
# PIM3 = PIM3 (Homo sapiens, UniProt Q86V86)
# Protocol: as §1
# YES1 = YES1 (Homo sapiens, UniProt P07947)
# Protocol: as §1
# TSSK1 = TSSK1 (Homo sapiens, UniProt Q9BXA7)
# Protocol: as §1
# MARK4 = MARK4 (Homo sapiens, UniProt Q96L34)
# Protocol: as §1
# EPH-B3 = EPH-B3 (Homo sapiens, UniProt P54753)
# Protocol: as §1
# MLK3 = MLK3 (Homo sapiens, UniProt Q16584)
# Protocol: as §1
# DYRK2 = DYRK2 (Homo sapiens, UniProt Q92630)
# Protocol: as §1
# FGF-R1 = FGF-R1 (Homo sapiens, UniProt P11362)
# Protocol: as §1
# ASK1 = ASK1 (Homo sapiens, UniProt Q99683)
# Protocol: as §1
# EPH-B1 = EPH-B1 (Homo sapiens, UniProt P54762)
# Protocol: as §1
# MARK2 = MARK2 (Homo sapiens, UniProt Q7KZI7)
# Protocol: as §1
# EPH-A4 = EPH-A4 (Homo sapiens, UniProt P54764)
# Protocol: as §1
# PKCγ = PKCγ (Homo sapiens, UniProt P05129)
# Protocol: as §1
# RSK2 = RSK2 (Homo sapiens, UniProt P51812)
# Protocol: as §1
# IRAK1 = IRAK1 (Homo sapiens, UniProt P51617)
# Protocol: as §1
# PAK5 = PAK5 (Homo sapiens, UniProt Q9P286)
# Protocol: as §1
# MNK2 = MNK2 (Homo sapiens, UniProt Q9HBH9)
# Protocol: as §1
# HER4 = HER4 (Homo sapiens, UniProt Q15303)
# Protocol: as §1
# TGFBR1 = TGFBR1 (Homo sapiens, UniProt P36897)
# Protocol: as §1
# CK1δ = CK1δ (Homo sapiens, UniProt P48730)
# Protocol: as §1
# MAP4K5 = MAP4K5 (Homo sapiens, UniProt Q9Y4K4)
# Protocol: as §1
# MKK1 = MKK1 (Homo sapiens, UniProt Q02750)
# Protocol: as §1
# MAP4K3 = MAP4K3 (Homo sapiens, UniProt Q8IVH8)
# Protocol: as §1
# MPSK1 = MPSK1 (Homo sapiens, UniProt O75716)
# Protocol: as §1
# BTK = BTK (Homo sapiens, UniProt Q06187)
# Protocol: as §1
# PRAK = PRAK (Homo sapiens, UniProt Q8IW41)
# Protocol: as §1
# CDK2-Cyclin A = CDK2-Cyclin A (Homo sapiens, UniProt P24941)
# Protocol: as §1
# MST2 = MST2 (Homo sapiens, UniProt Q13188)
# Protocol: as §1
# Chain of EPH-B1 (P54762 18-984): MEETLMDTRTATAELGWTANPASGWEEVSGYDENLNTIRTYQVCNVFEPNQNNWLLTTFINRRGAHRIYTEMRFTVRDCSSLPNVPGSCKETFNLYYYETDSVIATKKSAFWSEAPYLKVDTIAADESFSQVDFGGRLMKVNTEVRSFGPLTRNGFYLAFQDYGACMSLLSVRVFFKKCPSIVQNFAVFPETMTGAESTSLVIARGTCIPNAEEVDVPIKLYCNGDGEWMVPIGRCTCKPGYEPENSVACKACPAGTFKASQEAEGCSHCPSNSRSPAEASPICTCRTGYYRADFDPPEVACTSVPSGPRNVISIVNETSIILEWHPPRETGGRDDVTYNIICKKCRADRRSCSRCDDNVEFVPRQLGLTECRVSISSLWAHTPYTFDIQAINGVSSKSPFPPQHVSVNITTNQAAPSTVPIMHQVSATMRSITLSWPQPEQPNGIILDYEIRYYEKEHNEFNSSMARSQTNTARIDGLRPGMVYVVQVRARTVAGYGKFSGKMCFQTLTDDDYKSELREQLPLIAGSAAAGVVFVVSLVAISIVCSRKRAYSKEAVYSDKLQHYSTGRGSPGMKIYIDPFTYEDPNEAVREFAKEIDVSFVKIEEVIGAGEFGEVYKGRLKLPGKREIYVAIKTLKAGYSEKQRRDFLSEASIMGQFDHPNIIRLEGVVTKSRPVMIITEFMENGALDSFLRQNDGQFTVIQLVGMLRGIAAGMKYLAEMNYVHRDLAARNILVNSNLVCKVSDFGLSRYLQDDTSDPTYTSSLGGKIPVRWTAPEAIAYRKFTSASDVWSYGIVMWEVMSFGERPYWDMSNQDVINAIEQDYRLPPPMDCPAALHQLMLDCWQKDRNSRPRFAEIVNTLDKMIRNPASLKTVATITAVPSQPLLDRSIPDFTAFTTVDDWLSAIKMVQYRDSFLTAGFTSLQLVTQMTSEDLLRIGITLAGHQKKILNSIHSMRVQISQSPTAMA
# Chain of EPH-B3 (P54753 34-998): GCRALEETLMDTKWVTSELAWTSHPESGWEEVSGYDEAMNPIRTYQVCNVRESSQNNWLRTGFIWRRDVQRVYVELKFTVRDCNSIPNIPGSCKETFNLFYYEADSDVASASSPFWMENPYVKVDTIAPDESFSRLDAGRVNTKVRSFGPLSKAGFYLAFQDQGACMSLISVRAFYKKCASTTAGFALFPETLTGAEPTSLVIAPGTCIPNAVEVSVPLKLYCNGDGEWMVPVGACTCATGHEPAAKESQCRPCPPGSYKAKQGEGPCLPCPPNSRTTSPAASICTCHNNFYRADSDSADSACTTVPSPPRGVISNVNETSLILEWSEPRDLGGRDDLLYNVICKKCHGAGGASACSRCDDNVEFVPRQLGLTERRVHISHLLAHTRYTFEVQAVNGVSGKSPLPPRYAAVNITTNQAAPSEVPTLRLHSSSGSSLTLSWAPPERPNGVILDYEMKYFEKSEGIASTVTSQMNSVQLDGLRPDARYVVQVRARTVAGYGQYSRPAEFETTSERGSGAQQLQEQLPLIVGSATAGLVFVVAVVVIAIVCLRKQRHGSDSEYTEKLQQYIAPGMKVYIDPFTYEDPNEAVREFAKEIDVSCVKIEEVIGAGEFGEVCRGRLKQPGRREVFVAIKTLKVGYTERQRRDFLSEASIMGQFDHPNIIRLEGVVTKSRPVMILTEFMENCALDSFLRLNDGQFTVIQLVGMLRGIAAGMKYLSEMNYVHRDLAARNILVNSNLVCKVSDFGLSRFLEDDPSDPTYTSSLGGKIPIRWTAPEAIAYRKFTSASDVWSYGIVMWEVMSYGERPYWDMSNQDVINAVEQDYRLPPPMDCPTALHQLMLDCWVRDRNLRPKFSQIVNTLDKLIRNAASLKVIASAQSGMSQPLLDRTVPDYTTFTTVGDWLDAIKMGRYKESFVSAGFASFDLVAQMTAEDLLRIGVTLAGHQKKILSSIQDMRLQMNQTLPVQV
# Chain of TSSK1 (Q9BXA7 whole entry): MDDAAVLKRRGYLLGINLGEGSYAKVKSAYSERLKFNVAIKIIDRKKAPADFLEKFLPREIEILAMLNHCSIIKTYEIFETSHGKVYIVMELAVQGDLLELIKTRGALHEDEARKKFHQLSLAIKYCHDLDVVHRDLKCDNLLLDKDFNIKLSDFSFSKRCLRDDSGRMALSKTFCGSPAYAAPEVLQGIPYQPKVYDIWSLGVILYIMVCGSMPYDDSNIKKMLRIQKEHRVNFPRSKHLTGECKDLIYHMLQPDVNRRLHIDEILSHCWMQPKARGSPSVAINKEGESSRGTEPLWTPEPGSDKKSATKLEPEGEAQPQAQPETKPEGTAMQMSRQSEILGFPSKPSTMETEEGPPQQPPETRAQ
# Chain of MLK3 (Q16584 whole entry): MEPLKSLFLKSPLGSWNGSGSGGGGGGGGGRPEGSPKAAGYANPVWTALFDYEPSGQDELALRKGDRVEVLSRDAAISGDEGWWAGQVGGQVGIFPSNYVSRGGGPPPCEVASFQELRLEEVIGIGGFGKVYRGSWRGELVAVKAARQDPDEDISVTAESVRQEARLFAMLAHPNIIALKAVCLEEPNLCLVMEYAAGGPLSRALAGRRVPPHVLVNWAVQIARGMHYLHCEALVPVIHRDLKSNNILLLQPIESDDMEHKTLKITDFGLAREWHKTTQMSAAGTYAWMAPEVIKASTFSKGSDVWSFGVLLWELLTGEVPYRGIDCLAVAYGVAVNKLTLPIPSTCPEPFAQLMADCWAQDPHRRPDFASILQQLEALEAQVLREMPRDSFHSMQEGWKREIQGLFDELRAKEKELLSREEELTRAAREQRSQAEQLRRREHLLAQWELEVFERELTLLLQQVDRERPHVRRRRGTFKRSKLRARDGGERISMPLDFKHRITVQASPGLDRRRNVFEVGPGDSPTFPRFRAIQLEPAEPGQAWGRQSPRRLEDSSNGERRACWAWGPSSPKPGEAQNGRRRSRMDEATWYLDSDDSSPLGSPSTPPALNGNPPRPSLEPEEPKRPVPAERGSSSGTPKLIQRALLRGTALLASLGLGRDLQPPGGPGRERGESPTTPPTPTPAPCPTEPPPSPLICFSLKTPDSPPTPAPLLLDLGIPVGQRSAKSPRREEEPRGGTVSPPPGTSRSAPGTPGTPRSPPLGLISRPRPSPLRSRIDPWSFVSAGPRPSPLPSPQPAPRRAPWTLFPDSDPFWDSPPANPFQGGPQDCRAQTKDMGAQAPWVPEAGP
# Chain of MAPKAP-K2 (P49137 whole entry): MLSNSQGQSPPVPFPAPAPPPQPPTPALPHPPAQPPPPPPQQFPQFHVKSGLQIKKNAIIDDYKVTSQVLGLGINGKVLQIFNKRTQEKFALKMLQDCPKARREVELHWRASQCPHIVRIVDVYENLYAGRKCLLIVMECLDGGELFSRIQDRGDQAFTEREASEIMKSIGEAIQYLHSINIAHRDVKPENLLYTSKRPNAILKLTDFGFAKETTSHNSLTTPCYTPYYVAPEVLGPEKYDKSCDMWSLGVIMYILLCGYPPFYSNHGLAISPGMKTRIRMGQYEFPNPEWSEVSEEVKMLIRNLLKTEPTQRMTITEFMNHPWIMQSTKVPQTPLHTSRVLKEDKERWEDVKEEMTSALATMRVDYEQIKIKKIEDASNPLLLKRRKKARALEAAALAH
# Chain of TTBK2 (Q6IQ55 whole entry): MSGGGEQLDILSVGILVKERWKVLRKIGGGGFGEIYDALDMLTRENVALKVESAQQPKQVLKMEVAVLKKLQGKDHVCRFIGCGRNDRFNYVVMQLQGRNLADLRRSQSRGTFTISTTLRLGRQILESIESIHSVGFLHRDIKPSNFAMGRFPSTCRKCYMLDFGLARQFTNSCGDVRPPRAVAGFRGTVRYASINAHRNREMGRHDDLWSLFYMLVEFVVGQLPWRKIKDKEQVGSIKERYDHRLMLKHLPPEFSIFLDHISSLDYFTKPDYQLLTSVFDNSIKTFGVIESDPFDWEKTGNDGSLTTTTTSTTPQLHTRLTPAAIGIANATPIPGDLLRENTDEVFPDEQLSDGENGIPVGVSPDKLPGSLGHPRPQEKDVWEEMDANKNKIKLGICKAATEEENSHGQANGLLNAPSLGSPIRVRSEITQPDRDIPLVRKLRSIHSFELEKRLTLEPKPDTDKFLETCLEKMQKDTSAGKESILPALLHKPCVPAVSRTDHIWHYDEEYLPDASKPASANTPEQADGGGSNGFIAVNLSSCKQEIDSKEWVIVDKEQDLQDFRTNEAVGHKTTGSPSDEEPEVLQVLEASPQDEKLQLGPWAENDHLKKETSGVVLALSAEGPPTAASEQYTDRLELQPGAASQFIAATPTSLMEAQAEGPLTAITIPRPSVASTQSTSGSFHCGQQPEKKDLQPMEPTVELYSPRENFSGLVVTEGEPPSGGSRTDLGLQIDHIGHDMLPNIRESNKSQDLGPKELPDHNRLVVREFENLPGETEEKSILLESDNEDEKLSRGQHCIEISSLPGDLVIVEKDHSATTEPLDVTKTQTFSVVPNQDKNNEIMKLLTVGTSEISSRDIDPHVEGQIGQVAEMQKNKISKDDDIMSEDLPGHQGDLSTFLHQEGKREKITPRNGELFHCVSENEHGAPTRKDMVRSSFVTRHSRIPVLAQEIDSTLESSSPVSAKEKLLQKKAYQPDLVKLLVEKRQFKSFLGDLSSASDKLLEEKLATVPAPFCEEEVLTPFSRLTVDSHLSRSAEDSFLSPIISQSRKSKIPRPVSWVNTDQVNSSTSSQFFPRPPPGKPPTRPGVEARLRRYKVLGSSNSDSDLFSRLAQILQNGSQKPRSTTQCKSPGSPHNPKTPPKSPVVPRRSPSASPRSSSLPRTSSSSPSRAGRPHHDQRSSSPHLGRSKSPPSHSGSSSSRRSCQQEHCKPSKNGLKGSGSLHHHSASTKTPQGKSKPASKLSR
structure (smiles),measurement,setting,value
"Cc1nc2ccc3sc(NC(=O)c4ccc5ncsc5c4)nc3c2s1 [3A5, N-(2-methyl[1,3]thiazolo[5,4-e][1,3]benzothiazol-7-yl)-1,3-benzothiazole-6-carboxamide]",TESK1 activity in kinase profiling,TESK1,96
same,NEK2a activity in kinase profiling,NEK2a,81
same,MAPKAP-K2 activity in kinase profiling,MAPKAP-K2,107
same,p38b MAPK activity in kinase profiling,p38b MAPK,100
same,TBK1 activity in kinase profiling,TBK1,83
same,p38a MAPK activity in kinase profiling,p38a MAPK,94
same,SYK activity in kinase profiling,SYK,99
same,SIK2 activity in kinase profiling,SIK2,91
same,PLK1 activity in kinase profiling,PLK1,110
same,TTBK2 activity in kinase profiling,TTBK2,108
same,CHK1 activity in kinase profiling,CHK1,120
same,PKCa activity in kinase profiling,PKCa,100
same,RSK1 activity in kinase profiling,RSK1,83
same,WNK1 activity in kinase profiling,WNK1,99
same,PIM3 activity in kinase profiling,PIM3,88
same,YES1 activity in kinase profiling,YES1,112
same,TSSK1 activity in kinase profiling,TSSK1,81
same,MARK4 activity in kinase profiling,MARK4,80
same,EPH-B3 activity in kinase profiling,EPH-B3,89
same,MLK3 activity in kinase profiling,MLK3,49
same,DYRK2 activity in kinase profiling,DYRK2,61
same,FGF-R1 activity in kinase profiling,FGF-R1,149
same,ASK1 activity in kinase profiling,ASK1,59
same,EPH-B1 activity in kinase profiling,EPH-B1,101
same,MARK2 activity in kinase profiling,MARK2,87
same,EPH-A4 activity in kinase profiling,EPH-A4,120
same,PKCγ activity in kinase profiling,PKCγ,102
same,RSK2 activity in kinase profiling,RSK2,120
same,IRAK1 activity in kinase profiling,IRAK1,88
same,PAK5 activity in kinase profiling,PAK5,75
same,MNK2 activity in kinase profiling,MNK2,86
same,HER4 activity in kinase profiling,HER4,94
same,TGFBR1 activity in kinase profiling,TGFBR1,93
same,CK1δ activity in kinase profiling,CK1δ,34
same,MAP4K5 activity in kinase profiling,MAP4K5,91
same,MKK1 activity in kinase profiling,MKK1,72
same,MAP4K3 activity in kinase profiling,MAP4K3,125
same,MPSK1 activity in kinase profiling,MPSK1,150
same,BTK activity in kinase profiling,BTK,106
same,PRAK activity in kinase profiling,PRAK,89
same,CDK2-Cyclin A activity in kinase profiling,CDK2-Cyclin A,115
same,MST2 activity in kinase profiling,MST2,119
"CSc1nc2ccc3nc(NC(=O)c4ccco4)sc3c2s1 [5E4, N-[7-(methylsulfanyl)[1,3]thiazolo[4,5-g][1,3]benzothiazol-2-yl]-2-furamide]",TESK1 activity in kinase profiling,TESK1,95
same,NEK2a activity in kinase profiling,NEK2a,83
same,MAPKAP-K2 activity in kinase profiling,MAPKAP-K2,92
same,p38b MAPK activity in kinase profiling,p38b MAPK,98
same,TBK1 activity in kinase profiling,TBK1,83
same,p38a MAPK activity in kinase profiling,p38a MAPK,96
same,SYK activity in kinase profiling,SYK,102
same,SIK2 activity in kinase profiling,SIK2,94
same,PLK1 activity in kinase profiling,PLK1,102
same,TTBK2 activity in kinase profiling,TTBK2,103
same,CHK1 activity in kinase profiling,CHK1,111
same,PKCa activity in kinase profiling,PKCa,81
same,RSK1 activity in kinase profiling,RSK1,92
same,WNK1 activity in kinase profiling,WNK1,90
same,PIM3 activity in kinase profiling,PIM3,95
same,YES1 activity in kinase profiling,YES1,110
same,TSSK1 activity in kinase profiling,TSSK1,81
same,MARK4 activity in kinase profiling,MARK4,87
same,EPH-B3 activity in kinase profiling,EPH-B3,110
same,MLK3 activity in kinase profiling,MLK3,18
same,DYRK2 activity in kinase profiling,DYRK2,9
same,FGF-R1 activity in kinase profiling,FGF-R1,109
same,ASK1 activity in kinase profiling,ASK1,84
same,EPH-B1 activity in kinase profiling,EPH-B1,93
same,MARK2 activity in kinase profiling,MARK2,90
same,EPH-A4 activity in kinase profiling,EPH-A4,112
same,PKCγ activity in kinase profiling,PKCγ,100
same,RSK2 activity in kinase profiling,RSK2,100
same,IRAK1 activity in kinase profiling,IRAK1,87
same,PAK5 activity in kinase profiling,PAK5,81
same,MNK2 activity in kinase profiling,MNK2,88
same,HER4 activity in kinase profiling,HER4,102
same,TGFBR1 activity in kinase profiling,TGFBR1,94
same,CK1δ activity in kinase profiling,CK1δ,94
same,MAP4K5 activity in kinase profiling,MAP4K5,89
same,MKK1 activity in kinase profiling,MKK1,85
same,MAP4K3 activity in kinase profiling,MAP4K3,121
same,MPSK1 activity in kinase profiling,MPSK1,114
same,BTK activity in kinase profiling,BTK,105
same,PRAK activity in kinase profiling,PRAK,85
same,CDK2-Cyclin A activity in kinase profiling,CDK2-Cyclin A,101
same,MST2 activity in kinase profiling,MST2,129
